Experiments:
[1] = Particle size of Luc DNA-encapsulated lipid nanoparticles; format: physicochemical; conditions: cationic lipid:DPPC:cholesterol:GM-020=60:10.6:28:1.4 molar ratio
Excerpt: The particle size of the lipid particle (in the composition) can be measured by a known approach. For example, the particle size can be calculated as a Z-average particle size by the cumulant analysis of an autocorrelation function using a particle size measurement apparatus Zetasizer Nano ZS (Malvern Instruments) based on a dynamic light scattering measurement technique. The particle size (average particle size) of the lipid particle (in the composition) is, for example, 10 to 200 nm, preferably 60 to 170 nm.
(§1) A lipid mixture containing a cationic lipid of the Examples shown in Table 2 (cationic lipid:DPPC:cholesterol:GM-020=60:10.6:28:1.4, molar ratio) was dissolved in 90% of EtOH and 10% of water to obtain a 15.0 mg/ml lipid solution. Luciferase (luc) DNA (manufactured by Nature Technology Corp.) was dissolved in a 10 mM MES buffer solution (pH 5.5) to obtain a 0.3 mg/ml nucleic acid solution. The obtained lipid solution and nucleic acid solution were mixed at a flow rate ratio of 3 ml/min:6 ml/min at room temperature using NanoAssemblr (manufactured by Precision NanoSystems Inc.) to obtain a dispersion containing Luc DNA-encapsulated lipid nanoparticles. The obtained dispersion was dialyzed against water at room temperature for 1 hour and against PBS at 4° C. for 23 hours using Slyde-A-Lyzer (molecular weight cutoff: 20 K, Thermo Fischer Scientific Inc.). Subsequently, the dialysate was filtered through a 0.2 µm syringe filter (Iwaki). A 60% solution of sucrose in PBS was added thereto, and the mixture was preserved as a 20% solution of sucrose in PBS at −80° C. Analysis results of particle size and rate of encapsulation of the Luc DNA-encapsulated lipid nanoparticles are also shown in Table 2.

[2] = Rate of encapsulation of Luc DNA in lipid nanoparticles; format: physicochemical; parameters: unit: %; conditions: Luc DNA-encapsulated lipid nanoparticles; cationic lipid:DPPC:cholesterol:GM-020=60:10.6:28:1.4 molar ratio
Excerpt: The concentration and rate of encapsulation of the nucleic acid (e.g., siRNA or mRNA) in the composition of the present invention can be measured by a known approach. For example, the nucleic acid is fluorescently labeled using Quant-iT™ RiboGreen® (Invitrogen Corp.), and the fluorescence intensity can be measured to determine the concentration and the rate of encapsulation. The concentration of the nucleic acid in the composition can be calculated using a calibration curve prepared from aqueous nucleic acid solutions having known concentrations. The rate of encapsulation can be calculated on the basis of the difference in fluorescence intensity between the presence and absence of addition of Triton-X 100 (surfactant for disrupting the lipid particle). The concentration of the nucleic acid in the composition refers to the total concentration of a nucleic acid encapsulated in the lipid particle and an unencapsulated nucleic acid. The rate of encapsulation refers to the ratio of the nucleic acid encapsulated in the lipid particle to all nucleic acids in the composition.
as §1

[3] = test system: ICrl:CD1 (ICR) mice; assay: Mouse bioluminescence imaging evaluation (Test Example 1); format: in vivo; conditions: Luc DNA-encapsulated lipid nanoparticles 10 mL/kg i.v. to ICR mice; IVIS total flux 15 minutes after luciferin i.p.
Experimental: The Luc DNA-encapsulated lipid nanopatricles obtained in the aforesaid Production Example were intravenously administered to the tails of ICrl:CD1 (ICR) mice (10 mL/kg i.v.). After administration of the lipid particles, luciferin (15 mg/mL) was administered to the mice (10 mL/kg i.p.), which were loaded in an IVIS (in vivo imaging system) apparatus (manufactured by PerkinElmer, Inc.) under isoflurane inhalation anesthesia. Luminescence images of the mice were taken ventrally (in a supine position) 15 minutes after luciferin administration. The luminescence was digitized with the software of IVIS, followed by evaluation using the value of total flux. Higher luminescence means strong expression of the protein encoded by the DNA encapsulate in the lipid particle. In Table 2, higher luminescence is indicated on a scale of A, B and C in order. A represents luminescence of 3.0E+07 or more, B represents luminescence of 1.0E+0.7 or more and less than 3.0E+07, and C represents luminescence of less than 1.0E+07.

| Particle size (nm) [1] [nm] | Rate of encapsulation [2] | SMILES | Luminescence [3] |
| --- | --- | --- | --- |
| 148.3 | 95.4 | CCCCCCCOC(=O)CCCCC(=O)OCC(COC(=O)CCCCC(=O)OCCCCCCC)(COC(=O)CCCN(C)C)COC(=O)CC(CCCCCC)CCCCCC [Example 85, 1,1′-[2-({[4-(Dimethylamino)butanoyl]oxy}methyl)-2-{[(3-hexylnonanoyl)oxy]methyl}propane-1,3-diyl] 6,6′-diheptyl dihexanedioate] | B (B represents luminescence of 1.0E+0.7 or more and less than 3.0E+07) |
| 74.2 | 98.8 | CCCCCC(CCCCC)COC(=O)CCC(=O)OCC(COC(=O)CCCN(C)C)(COC(=O)CC(CCCCC)CCCCC)COC(=O)CC(CCCCC)CCCCC [Example 96, 2-({[4-(Dimethylamino)butanoyl]oxy}methyl)-3-[(3-pentyloctanoyl)oxy]-2-{[(3-pentyloctanoyl)oxy]methyl}propyl 2-pentylheptyl butanedioate] | B (B represents luminescence of 1.0E+0.7 or more and less than 3.0E+07) |
| 112.8 | 96.0 | CCCCCCCCOC(=O)CCCCC(=O)OCC(COC(=O)CCCN(C)C)(COC(=O)CC(CCCCC)CCCCC)COC(=O)CC(CCCCC)CCCCC [Example 49, 2-({[4-(Dimethylamino)butanoyl]oxy}methyl)-3-[(3-pentyloctanoyl)oxy]-2-{[(3-pentyloctanoyl)oxy]methyl}propyl octyl hexanedioate] | B (B represents luminescence of 1.0E+0.7 or more and less than 3.0E+07) |
| 80.1 | 97.1 | CCCCCCCCCCC(C(=O)OC)C(=O)OCC(COC(=O)CCCN(CC)C(C)C)(COC(=O)CC(CCCCC)CCCCC)COC(=O)C(CCCCCCCCCC)C(=O)OC (stereo not drawn) [Example 135, 1,1′-(2-[({4-[Ethyl(propan-2-yl)amino]butanoyl}oxy)methyl]-2-{[(3-pentyloctanoyl)oxy]methyl}propane-1,3-diyl) 3,3′-dimethyl bis(decylpropanedioate)] | A (A represents luminescence of 3.0E+07 or more) |
| 184.3 | 52.7 | CCCCCC(CCCCC)CC(=O)OCC(COC(=O)CCCCCCCC(=O)OCCCC)(COC(=O)CCCN(C)C)COC(=O)CC(CCCCC)CCCCC [Example 34, Butyl 2-({[4-(dimethylamino)butanoyl]oxy}methyl)-3-[(3-pentyloctanoyl)oxy]-2-{[(3-pentyloctanoyl)oxy]methyl}propyl nonanedioate] | C (C represents luminescence of less than 1.0E+07) |
| 152.1 | 96.0 | CCCCCCOC(=O)C(CCCCCC)C(=O)OCC(COC(=O)CCCCN(C)C)(COC(=O)CC(CCCCC)CCCCC)COC(=O)C(CCCCCC)C(=O)OCCCCCC (stereo not drawn) [Example 122, 1,1′-[2-({[5-(Dimethylamino)pentanoyl]oxy}methyl)-2-{[(3-pentyloctanoyl)oxy]methyl}propane-1,3-diyl] 3,3′-dihexyl bis(hexylpropanedioate)] | B (B represents luminescence of 1.0E+0.7 or more and less than 3.0E+07) |
| 90.9 | 98.2 | CCCCCCOC(=O)CCCCCCCC(=O)OCC(COC(=O)CCCN(C)C)(COC(=O)CC(CCCCC)CCCCC)COC(=O)CC(CCCCC)CCCCC [Example 63, 2-({[4-(Dimethylamino)butanoyl]oxy}methyl)-3-[(3-pentyloctanoyl)oxy]-2-{[(3-pentyloctanoyl)oxy]methyl}propyl hexyl nonanedioate] | C (C represents luminescence of less than 1.0E+07) |
| 97.9 | 97.1 | CCCCCCCOC(=O)CCCCC(=O)OCC(COC(=O)CCCN(C)C)(COC(=O)CC(CCC)CCCCCCC)COC(=O)CC(CCC)CCCCCCC (stereo not drawn) [Example 31, 2-({[4-(Dimethylamino)butanoyl]oxy}methyl)-3-[(3-propyldecanoyl)oxy]-2-{[(3-propyldecanoyl)oxy]methyl}propyl heptyl hexanedioate] | A (A represents luminescence of 3.0E+07 or more) |
| 137.2 | 93.2 | CCCCCCCCOC(=O)CCCC(=O)OCC(COC(=O)CCCC(=O)OCCCCCCCC)(COC(=O)CCCN(CC)C(C)C)COC(=O)CC(CCCCC)CCCCC [Example 101, 1,1′-(2-[({4-[Ethyl(propan-2-yl)amino]butanoyl}oxy)methyl]-2-{[(3-pentyloctanoyl)oxy]methyl}propane-1,3-diyl) 5,5′-dioctyl dipentanedioate] | A (A represents luminescence of 3.0E+07 or more) |
| 122.0 | 97.0 | CCCCCC(CCCCC)CC(=O)OCC(COC(=O)CCCCC(=O)OCC(CCC)CCC)(COC(=O)CCCCC(=O)OCC(CCC)CCC)COC(=O)CCCN(CC)C(C)C [Example 116, 1,1′-(2-[({4-[Ethyl(propan-2-yl)amino]butanoyl}oxy)methyl]-2-{[(3-pentyloctanoyl)oxy]methyl}propane-1,3-diyl) 6,6′-bis(2-propylpentyl) dihexanedioate] | B (B represents luminescence of 1.0E+0.7 or more and less than 3.0E+07) |
| 148.7 | 92.9 | CCCCCCCOC(=O)CCCCC(=O)OCC(COC(=O)CCCCC(=O)OCCCCCCC)(COC(=O)CCCN(C)C)COC(=O)C(CCCCC)CCCCC [Example 83, 1,1′-[2-({[4-(Dimethylamino)butanoyl]oxy}methyl)-2-{[(2-pentylheptanoyl)oxy]methyl}propane-1,3-diyl] 6,6′-diheptyl dihexanedioate] | B (B represents luminescence of 1.0E+0.7 or more and less than 3.0E+07) |
| 98.4 | 97.0 | CCCCCCCOC(=O)CCCCC(=O)OCC(COC(=O)CCCN(C)C)(COC(=O)CC(CCCCC)CCCCC)COC(=O)CC(CCCCC)CCCCC [Example 16, 2-({[4-(Dimethylamino)butanoyl]oxy}methyl)-3-[(3-pentyloctanoyl)oxy]-2-{[(3-pentyloctanoyl)oxy]methyl}propyl heptyl hexanedioate] | B (B represents luminescence of 1.0E+0.7 or more and less than 3.0E+07) |
| 145.0 | 94.7 | CCCCCCCOC(=O)CCCCC(=O)OCC(COC(=O)CCCCC(=O)OCCCCCCC)(COC(=O)CCCN(CC)CC)COC(=O)CC(CCCCC)CCCCC [Example 14, 1,1′-[2-{{[4-(Diethylamino)butanoyl]oxy}methyl)-2-{[(3-pentyloctanoyl)oxy]methyl}propane-1,3-diyl] 6,6′-diheptyl dihexanedioate] | A (A represents luminescence of 3.0E+07 or more) |
| 144.9 | 92.6 | CCCCCOC(=O)CCCCCCC(=O)OCC(COC(=O)CCCCCCC(=O)OCCCCC)(COC(=O)CCCN(C)C)COC(=O)CC(CCCCC)CCCCC [Example 129, 1,1′-[2-({[4-(Dimethylamino)butanoyl]oxy}methyl)-2-{[(3-pentyloctanoyl)oxy]methyl}propane-1,3-diyl] 8,8′-dipentyl dioctanedioate] | A (A represents luminescence of 3.0E+07 or more) |

Source: patent US20250197343A1, “CATIONIC LIPID” (TAKEDA PHARMACEUTICAL COMPANY LIMITED, priority 2021, published 2025)
